Assay results taken from ChEMBL document CHEMBL5465560, “Selectivity Literature for EUbOPEN Chemogenomic Library” (2024).
Each block holds one molecule with its values, some of them ahead of it.

Key:
[1] = biological target: Serine/threonine-protein kinase PLK1 (Homo sapiens, UniProt P53350); experiment: Selectivity interaction (Kinase panel (Z-LYTE Assay)) EUB0001632a PLK1; settings: at 10 µM
[2] = biological target: Casein kinase I isoform alpha (Homo sapiens, UniProt P48729); experiment: Selectivity interaction (KinomeScan (DiscoverX)) EUB0000666a CSNK1A1; settings: at 10 µM
Sequence of Casein kinase I isoform alpha (P48729 2-337 limits assumed): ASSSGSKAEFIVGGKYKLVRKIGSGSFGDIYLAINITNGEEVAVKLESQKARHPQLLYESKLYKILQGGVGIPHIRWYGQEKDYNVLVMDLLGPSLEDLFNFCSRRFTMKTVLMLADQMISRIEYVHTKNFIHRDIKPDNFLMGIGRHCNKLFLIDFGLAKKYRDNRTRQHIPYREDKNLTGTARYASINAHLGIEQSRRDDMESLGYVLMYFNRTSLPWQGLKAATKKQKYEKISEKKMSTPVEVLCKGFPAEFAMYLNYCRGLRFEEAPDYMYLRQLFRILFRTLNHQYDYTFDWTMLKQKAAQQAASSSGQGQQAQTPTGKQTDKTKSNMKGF

[3] = biological target: Epithelial discoidin domain-containing receptor 1 (Homo sapiens) (UniProt Q08345); experiment: Selectivity interaction (KinomeScan (DiscoverX)) EUB0000666a DDR1; settings: at 10 µM
Sequence of Epithelial discoidin domain-containing receptor 1 (Homo sapiens) (Q08345 whole entry, the tested form may be a part): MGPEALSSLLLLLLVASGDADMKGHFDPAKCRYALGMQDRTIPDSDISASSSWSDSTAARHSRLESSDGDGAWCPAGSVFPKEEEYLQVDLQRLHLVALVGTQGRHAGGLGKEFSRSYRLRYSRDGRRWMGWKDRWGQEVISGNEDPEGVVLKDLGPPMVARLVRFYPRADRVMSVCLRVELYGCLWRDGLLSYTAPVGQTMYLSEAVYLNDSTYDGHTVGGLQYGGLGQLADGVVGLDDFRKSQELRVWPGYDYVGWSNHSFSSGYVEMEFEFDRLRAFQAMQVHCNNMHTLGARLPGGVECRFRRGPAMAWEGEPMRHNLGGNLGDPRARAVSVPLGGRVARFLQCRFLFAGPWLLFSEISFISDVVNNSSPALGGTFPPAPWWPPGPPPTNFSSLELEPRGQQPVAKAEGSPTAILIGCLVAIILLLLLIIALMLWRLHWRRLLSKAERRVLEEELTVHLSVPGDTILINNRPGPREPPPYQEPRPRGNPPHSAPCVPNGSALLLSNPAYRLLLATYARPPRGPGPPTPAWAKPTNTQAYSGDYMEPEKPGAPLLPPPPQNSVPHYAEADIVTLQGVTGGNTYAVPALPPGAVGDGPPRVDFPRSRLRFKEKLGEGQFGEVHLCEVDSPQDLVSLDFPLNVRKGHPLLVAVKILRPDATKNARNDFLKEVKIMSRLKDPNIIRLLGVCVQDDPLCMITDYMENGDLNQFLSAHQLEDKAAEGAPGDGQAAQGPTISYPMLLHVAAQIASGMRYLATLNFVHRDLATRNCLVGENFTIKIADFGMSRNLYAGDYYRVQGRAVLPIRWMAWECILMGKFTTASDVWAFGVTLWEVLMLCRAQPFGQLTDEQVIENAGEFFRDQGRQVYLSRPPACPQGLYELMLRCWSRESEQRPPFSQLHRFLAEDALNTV

[4] = biological target: Serine/threonine-protein kinase 35 (Homo sapiens) (UniProt Q8TDR2); experiment: Selectivity interaction (KinomeScan (DiscoverX)) EUB0000666a STK35; settings: at 10 µM
[5] = biological target: Insulin-like growth factor 1 receptor (Homo sapiens, UniProt P08069); experiment: Selectivity interaction (SelectScreen profiling (Invitrogen)) EUB0000607a IGF1R; settings: at 2 µM
Sequence of Insulin-like growth factor 1 receptor (P08069 31-736 limits assumed): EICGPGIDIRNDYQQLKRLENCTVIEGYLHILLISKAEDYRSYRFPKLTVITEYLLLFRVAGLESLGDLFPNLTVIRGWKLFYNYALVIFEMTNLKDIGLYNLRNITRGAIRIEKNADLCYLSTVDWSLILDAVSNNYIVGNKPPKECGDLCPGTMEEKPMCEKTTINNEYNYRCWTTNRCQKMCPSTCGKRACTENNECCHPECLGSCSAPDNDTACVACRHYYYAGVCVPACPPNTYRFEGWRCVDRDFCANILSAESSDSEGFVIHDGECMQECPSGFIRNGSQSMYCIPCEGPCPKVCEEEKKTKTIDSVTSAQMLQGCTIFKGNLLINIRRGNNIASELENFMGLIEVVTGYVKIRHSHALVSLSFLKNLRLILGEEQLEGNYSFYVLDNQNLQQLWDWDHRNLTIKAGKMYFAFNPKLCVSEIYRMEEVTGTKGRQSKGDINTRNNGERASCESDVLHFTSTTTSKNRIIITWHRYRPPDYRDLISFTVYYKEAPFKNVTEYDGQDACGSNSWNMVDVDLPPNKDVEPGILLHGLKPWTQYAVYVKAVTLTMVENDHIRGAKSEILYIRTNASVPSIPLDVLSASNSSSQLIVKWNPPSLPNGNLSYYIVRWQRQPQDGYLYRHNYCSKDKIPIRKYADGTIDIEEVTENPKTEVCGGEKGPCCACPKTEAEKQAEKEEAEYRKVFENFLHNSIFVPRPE
Sequence of Insulin-like growth factor 1 receptor (P08069 741-1367 limits assumed): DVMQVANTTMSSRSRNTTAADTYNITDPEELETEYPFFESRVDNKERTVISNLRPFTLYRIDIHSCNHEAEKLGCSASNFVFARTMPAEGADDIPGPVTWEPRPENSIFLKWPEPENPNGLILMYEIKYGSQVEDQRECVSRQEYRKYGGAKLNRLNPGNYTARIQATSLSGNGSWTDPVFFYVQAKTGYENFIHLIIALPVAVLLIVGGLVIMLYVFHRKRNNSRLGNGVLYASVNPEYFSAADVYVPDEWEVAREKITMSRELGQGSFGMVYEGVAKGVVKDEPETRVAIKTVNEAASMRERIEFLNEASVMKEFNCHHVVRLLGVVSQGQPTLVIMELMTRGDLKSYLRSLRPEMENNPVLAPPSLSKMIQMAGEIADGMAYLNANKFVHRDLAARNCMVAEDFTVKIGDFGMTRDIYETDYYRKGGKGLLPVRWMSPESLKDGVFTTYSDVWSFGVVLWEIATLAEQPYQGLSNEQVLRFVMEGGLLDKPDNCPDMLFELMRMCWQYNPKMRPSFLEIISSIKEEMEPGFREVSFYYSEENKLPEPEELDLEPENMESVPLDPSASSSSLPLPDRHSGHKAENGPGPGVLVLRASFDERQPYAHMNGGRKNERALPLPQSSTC

[6] = biological target: Tyrosine-protein kinase ABL1 (Homo sapiens, UniProt P00519); experiment: Selectivity interaction (ActivX KiNativ screen (kinase selectivity in THP-1 cell lysates)) EUB0000639a ABL1; format: subcellular; settings: lysate, at 5 µM
Sequence of Tyrosine-protein kinase ABL1 (P00519 whole entry): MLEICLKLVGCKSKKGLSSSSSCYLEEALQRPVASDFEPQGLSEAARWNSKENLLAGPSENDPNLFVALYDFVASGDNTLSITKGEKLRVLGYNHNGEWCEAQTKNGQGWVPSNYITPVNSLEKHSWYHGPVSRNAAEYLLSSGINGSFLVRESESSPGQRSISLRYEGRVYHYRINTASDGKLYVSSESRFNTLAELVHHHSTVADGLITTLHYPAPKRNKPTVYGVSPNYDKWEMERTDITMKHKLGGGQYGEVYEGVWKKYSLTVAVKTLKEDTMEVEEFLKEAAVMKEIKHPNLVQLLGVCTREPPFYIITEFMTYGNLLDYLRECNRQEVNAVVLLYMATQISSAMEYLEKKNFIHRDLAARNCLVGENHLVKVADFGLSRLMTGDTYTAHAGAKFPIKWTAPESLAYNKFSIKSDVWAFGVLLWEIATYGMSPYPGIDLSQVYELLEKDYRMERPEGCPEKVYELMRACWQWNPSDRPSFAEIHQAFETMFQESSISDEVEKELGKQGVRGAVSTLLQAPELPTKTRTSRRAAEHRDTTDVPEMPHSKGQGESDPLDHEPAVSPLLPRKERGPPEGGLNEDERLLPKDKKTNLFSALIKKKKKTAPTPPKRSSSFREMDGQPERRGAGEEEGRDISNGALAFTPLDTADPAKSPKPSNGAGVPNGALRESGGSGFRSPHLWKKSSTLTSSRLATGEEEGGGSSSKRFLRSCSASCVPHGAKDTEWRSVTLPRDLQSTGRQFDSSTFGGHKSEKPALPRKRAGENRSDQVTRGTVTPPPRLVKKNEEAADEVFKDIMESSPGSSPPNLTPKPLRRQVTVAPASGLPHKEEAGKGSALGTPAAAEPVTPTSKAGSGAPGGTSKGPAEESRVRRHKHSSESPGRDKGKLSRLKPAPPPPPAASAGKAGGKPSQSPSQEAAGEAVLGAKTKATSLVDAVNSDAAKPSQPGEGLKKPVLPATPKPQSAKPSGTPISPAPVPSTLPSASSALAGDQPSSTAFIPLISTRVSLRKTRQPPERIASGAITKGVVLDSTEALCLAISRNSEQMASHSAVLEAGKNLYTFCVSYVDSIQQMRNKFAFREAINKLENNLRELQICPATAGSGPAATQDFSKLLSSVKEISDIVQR

[7] = biological target: Epidermal growth factor receptor (Homo sapiens, UniProt P00533); experiment: Selectivity interaction (Kinase panel (Invitrogen)) EUB0000639a EGFR; settings: at 200 nM
[8] = biological target: Serine/threonine-protein kinase MARK2 (Homo sapiens) (UniProt Q7KZI7); experiment: Selectivity interaction (ActivX KiNativ screen (kinase selectivity in THP-1 cell lysates)) EUB0000639a MARK2; format: subcellular; settings: lysate, at 0.2 µM
Sequence of Serine/threonine-protein kinase MARK2 (Homo sapiens) (Q7KZI7 whole entry): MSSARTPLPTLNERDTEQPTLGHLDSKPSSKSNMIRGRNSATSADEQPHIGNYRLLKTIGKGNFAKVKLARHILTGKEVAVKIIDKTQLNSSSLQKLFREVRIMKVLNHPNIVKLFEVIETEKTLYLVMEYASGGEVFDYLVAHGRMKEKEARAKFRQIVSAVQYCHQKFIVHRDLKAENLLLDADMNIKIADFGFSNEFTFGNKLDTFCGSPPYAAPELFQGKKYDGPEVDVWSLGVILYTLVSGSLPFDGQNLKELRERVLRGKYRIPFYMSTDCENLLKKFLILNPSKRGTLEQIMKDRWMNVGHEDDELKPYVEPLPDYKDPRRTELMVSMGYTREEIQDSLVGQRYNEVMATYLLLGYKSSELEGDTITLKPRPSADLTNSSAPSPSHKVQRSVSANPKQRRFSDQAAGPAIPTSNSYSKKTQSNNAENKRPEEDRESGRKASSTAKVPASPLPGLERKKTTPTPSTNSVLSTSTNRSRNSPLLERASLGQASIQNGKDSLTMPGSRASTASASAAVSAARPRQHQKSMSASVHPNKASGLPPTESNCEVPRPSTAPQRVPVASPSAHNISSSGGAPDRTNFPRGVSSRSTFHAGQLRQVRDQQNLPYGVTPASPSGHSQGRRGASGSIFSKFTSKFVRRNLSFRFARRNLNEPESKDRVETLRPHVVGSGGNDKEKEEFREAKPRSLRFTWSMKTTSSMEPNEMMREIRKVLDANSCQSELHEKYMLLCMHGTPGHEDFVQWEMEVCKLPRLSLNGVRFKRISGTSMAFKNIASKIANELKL

[9] = biological target: Interferon-induced, double-stranded RNA-activated protein kinase (Homo sapiens) (UniProt P19525); experiment: Selectivity interaction (ActivX KiNativ screen (kinase selectivity in THP-1 cell lysates)) EUB0000639a EIF2AK2; format: subcellular; settings: lysate, at 0.04 µM
[10] = biological target: Serine/threonine-protein kinase MRCK beta (Homo sapiens) (UniProt Q9Y5S2); settings: at 10 µM
[11] = biological target: T1, MAP kinase-activated protein kinase 5 (Homo sapiens) (UniProt Q8IW41); experiment: Selectivity interaction (KinomeScan (DiscoverX)) EUB0000655a MAPKAPK5; settings: at 10 µM
T1 sequence (whole entry): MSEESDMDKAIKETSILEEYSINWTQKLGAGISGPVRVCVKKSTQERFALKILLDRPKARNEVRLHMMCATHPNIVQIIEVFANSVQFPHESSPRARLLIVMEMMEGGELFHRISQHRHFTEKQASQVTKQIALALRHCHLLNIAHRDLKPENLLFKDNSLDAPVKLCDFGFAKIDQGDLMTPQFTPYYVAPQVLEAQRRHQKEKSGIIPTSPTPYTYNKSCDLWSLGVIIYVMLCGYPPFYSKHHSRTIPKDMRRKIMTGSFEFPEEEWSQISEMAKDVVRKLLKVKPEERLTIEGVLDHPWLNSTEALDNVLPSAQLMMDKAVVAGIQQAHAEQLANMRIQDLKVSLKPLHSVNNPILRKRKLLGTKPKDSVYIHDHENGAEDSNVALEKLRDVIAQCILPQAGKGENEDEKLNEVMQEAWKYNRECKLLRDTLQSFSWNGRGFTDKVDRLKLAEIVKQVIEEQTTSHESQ

[12] = biological target: T2, 3-phosphoinositide-dependent protein kinase 1 (Homo sapiens) (UniProt O15530); experiment: Selectivity interaction (KinomeScan (DiscoverX)) EUB0000045b PDPK1
T2 sequence (whole entry): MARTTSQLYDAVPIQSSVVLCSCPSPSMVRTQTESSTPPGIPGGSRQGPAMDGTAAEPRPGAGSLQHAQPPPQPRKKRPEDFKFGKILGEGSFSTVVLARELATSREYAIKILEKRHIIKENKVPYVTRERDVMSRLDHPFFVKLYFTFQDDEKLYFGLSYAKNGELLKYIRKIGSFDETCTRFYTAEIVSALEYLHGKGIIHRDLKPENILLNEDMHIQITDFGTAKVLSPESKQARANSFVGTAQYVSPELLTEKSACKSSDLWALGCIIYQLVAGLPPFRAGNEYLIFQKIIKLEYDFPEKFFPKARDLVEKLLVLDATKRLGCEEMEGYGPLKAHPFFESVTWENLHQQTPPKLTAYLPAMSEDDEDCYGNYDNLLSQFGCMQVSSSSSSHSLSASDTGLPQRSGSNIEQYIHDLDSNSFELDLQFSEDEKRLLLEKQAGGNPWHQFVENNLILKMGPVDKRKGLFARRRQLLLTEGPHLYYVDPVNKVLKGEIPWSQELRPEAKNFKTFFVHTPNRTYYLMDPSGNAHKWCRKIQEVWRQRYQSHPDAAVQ

[13] = biological target: T3, Histone-arginine methyltransferase CARM1 (Homo sapiens) (UniProt Q86X55); settings: at 1 µM
T3 sequence (whole entry): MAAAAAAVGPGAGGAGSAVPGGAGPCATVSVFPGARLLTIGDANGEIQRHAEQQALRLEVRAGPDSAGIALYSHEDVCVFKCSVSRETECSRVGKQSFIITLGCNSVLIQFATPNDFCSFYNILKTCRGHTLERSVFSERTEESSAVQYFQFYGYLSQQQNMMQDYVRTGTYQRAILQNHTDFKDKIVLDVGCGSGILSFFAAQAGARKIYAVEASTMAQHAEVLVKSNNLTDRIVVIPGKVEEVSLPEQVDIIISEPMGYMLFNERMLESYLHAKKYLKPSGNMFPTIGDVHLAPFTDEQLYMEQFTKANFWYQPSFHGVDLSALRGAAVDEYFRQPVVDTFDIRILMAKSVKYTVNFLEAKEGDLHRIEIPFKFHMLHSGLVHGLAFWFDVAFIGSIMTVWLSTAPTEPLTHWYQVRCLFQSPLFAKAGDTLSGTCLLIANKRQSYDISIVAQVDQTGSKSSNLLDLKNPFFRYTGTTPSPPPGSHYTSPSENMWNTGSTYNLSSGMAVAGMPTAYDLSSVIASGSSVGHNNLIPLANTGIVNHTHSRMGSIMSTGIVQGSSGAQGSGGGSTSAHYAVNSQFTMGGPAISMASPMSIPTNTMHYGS

[14] = biological target: N-lysine methyltransferase SMYD2 (Homo sapiens) (UniProt Q9NRG4); experiment: Selectivity interaction (Transferase panel (protein, RNA, and DNA methyltransferases. and EP300 (acetyltransferase))) EUB0000270b SMYD2
Sequence of N-lysine methyltransferase SMYD2 (Homo sapiens) (Q9NRG4 whole entry): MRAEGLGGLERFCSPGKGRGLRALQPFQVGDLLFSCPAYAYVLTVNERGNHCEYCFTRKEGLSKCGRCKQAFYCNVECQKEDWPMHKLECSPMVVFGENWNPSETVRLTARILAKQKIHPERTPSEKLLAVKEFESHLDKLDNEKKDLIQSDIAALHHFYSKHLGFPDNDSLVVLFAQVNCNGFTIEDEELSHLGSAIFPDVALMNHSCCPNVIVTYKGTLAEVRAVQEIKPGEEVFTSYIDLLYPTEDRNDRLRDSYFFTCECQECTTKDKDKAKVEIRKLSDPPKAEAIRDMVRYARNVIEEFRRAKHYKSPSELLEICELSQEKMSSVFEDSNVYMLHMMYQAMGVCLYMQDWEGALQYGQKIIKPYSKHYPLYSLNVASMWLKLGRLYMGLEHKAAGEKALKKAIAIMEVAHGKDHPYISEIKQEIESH

[15] = biological target: Ribosomal protein S6 kinase alpha-1 (Homo sapiens, UniProt Q15418); settings: at 10 µM
[16] = biological target: Calcium/calmodulin-dependent protein kinase kinase 2 (Homo sapiens) (UniProt Q96RR4); experiment: Selectivity interaction (KinomeScan (DiscoverX)) EUB0000618a CAMKK2; settings: at 10 µM

% of control [1]: 1.25%
SMILES: Cn1cc(-n2cnc3c(NCc4nc5cc(Cl)c(Cl)cc5[nH]4)nc(N4CCOCC4)nc32)cn1

SMILES: O=C(NOC[C@H](O)CO)c1ccc(F)c(F)c1Nc1ccc(I)cc1F
% of control [2]: 100%
% of control [3]: 50%
% of control [4]: 83%

SMILES: CNC(=O)Nc1ccc(-c2nc(N3CC4CCC(C3)O4)c3cnn(C4CCC5(CC4)OCCO5)c3n2)cc1
% of inhibition [5]: 1%

% of inhibition [6]: 30.7%
% of inhibition [7]: 17%
% of inhibition [8]: 8.4%
% of inhibition [9]: 3.1%
SMILES: CC[C@@H]1[C@H](F)C(=O)N[C@@H]1COc1nccc2cc(C(N)=O)c(OC)cc12 [ZIMLOVISERTIB]

SMILES: COCC(=O)NC/C=C/c1ccc2ncnc(Nc3ccc(Oc4ccc(C)nc4)c(C)c3)c2c1 [CP-724714]
% of control [10]: 96%

SMILES: CN(C)CCOc1ccc(-c2nc(-c3ccncc3)c(-c3ccc4c(c3)CC/C4=N\O)[nH]2)cc1
% of control [11]: 100%

SMILES: C=CC(=O)Nc1cc(-n2c(=O)ccc3cnc4ccc(-c5ccc(NS(C)(=O)=O)cc5)cc4c32)ccc1C
% of control ([12]; at 1 µM): 100%
% of control ([12]; at 10 µM): 100%

% activity [13]: 75%
SMILES: CNCCN1CCC(c2cc(CN(C)C(=O)c3cccc(Oc4ccccc4)c3)ccn2)CC1

% activity ([14]; at 1 µM): > 90%
% activity ([14]; at 10 µM): > 80%
SMILES: Cc1cc(CN)cc(C)c1-c1ncn(C)c1-c1cncn1C

SMILES: Cc1cc([C@@H](C)Nc2ccccc2C(=O)O)c2nc(N3CCOCC3)cc(=O)n2c1 [AZD-6482]
% of control [15]: 84%

SMILES: O[C@H]1CC[C@H](Nc2ncc3nc(Nc4c(F)cc(F)cc4F)n([C@H]4CCOC4)c3n2)CC1
% of control [16]: 94%
